Experimental data published in PubChem BioAssay (NCI).
Values joined by “and” are separate entries in the source; they are usually repeats but may differ in a detail not shown here. Identical values can stand only once.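 Cells were grown in 96-well plates and exposed to each compound for 48 hours at five concentrations; endpoints were interpolated linearly between bracketing concentrations, or set to the highest concentration if not reached. GI50 is the concentration that inhibits growth by half. TGI is the concentration that stops growth completely.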

Key:
Test in all cases: inhibition of tumour cell growth, NCI panel, 48 h
U251 CNS = tested on: U251 CNS
OVCAR-3 ovarian = tested on: OVCAR-3 ovarian
HT29 colon = tested on: HT29 colon
DU-145 prostate = tested on: DU-145 prostate
T-47D breast = tested on: T-47D breast
UO-31 renal = tested on: UO-31 renal
HS 578T breast = tested on: HS 578T breast
A549 NSCLC = tested on: A549 NSCLC
MDA-MB-231 breast = tested on: MDA-MB-231 breast
MDA-MB-435 = tested on: MDA-MB-435

Row | Compound | GI50 (U251 CNS) [µM] | TGI (U251 CNS) [µM] | GI50 (OVCAR-3 ovarian) [µM] | TGI (OVCAR-3 ovarian) | GI50 (HT29 colon) [µM] | TGI (HT29 colon) [µM] | GI50 (DU-145 prostate) [µM] | TGI (DU-145 prostate) [µM] | GI50 (T-47D breast) [µM] | TGI (T-47D breast) [µM] | GI50 (UO-31 renal) | TGI (UO-31 renal) | GI50 (HS 578T breast) [µM] | TGI (HS 578T breast) | GI50 (A549 NSCLC) [µM] | TGI (A549 NSCLC) [µM] | GI50 (MDA-MB-231 breast) [µM] | TGI (MDA-MB-231 breast) [µM] | GI50 (MDA-MB-435) [µM] | TGI (MDA-MB-435)
1 | OCCN1CCCN(CCCN2c3ccccc3Sc3ccc(C(F)(F)F)cc32)CC1 | 2.04 | 4.32 | 3.84 | 13.9 µM | 1.76 | 3.75 | 5.61 | 17.8 | 2.21 | 5.39 | 2.3 µM | 10.6 µM | 2.04 | 5.89 µM | 4.69 | 15.6 | 2.31 | 6.15 | 1.67 | 3.33 µM
2 | CC1(C)N=C(N)N=C(N)N1c1ccc(CCCCCCc2ccc(S(=O)(=O)F)cc2)cc1 | – | 16.6 | – | 32.4 µM | – | 17.1 | – | 21.1 | – | 52 | – | 29.5 µM | – | 30.5 µM | – | 2.76 | – | 16.5 | – | 21.2 µM
3 | C=C1CCC2C(C)(CO)C(O)CCC2(C)C1C/C=C1\C(=O)OCC1O (centres undefined) | – | 23.1 | – | 21.2 µM | – | 25.8 | – | > 100 | – | 74.7 | – | > 100 µM | – | > 100 µM | – | 80.9 | – | 58.9 | – | 22.9 µM
4 | Clc1cc(Cl)cc(Nc2ccc3c(OCCCN4CCOCC4)cccc3n2)c1 | 1.98 | 3.95 | 2.92 | 9.63 µM | 1.76 | 3.39 | 3.08 | 9.67 | 4.91 | 18.2 | 1.51 µM | 2.94 µM | 2.51 | 8.14 µM | 2.6 | 6.87 | 1.8 | 3.94 | 1.8 | 3.71 µM
5 | COc1ccc(N=C2C(=O)Nc3ccc(Br)cc32)cc1 | – | 96.8 | – | 62.4 µM | – | 58.1 | – | > 100 | – | 74.6 | – | 26.5 µM | – | > 100 µM | – | > 100 | – | 35.3 | – | 27.4 µM
6 | Cn1cc(C2=C(c3cccc([N+](=O)[O-])c3)C(=O)NC2=O)c2ccccc21 | 5.9 | > 25 | 5.33 | > 22 µM | 7.29 | > 25 | 12.7 | > 25 | 6.32 | 19.4 | 6.46 µM | > 25 µM | 2.14 | > 25 µM | 8.52 | > 25 | 6.42 | > 25 | 7.46 | > 25 µM
7 | CN1CCC(C(=O)Nc2n[nH]c3nnc(-c4ccccc4)cc23)CC1 | > 25 | > 25 | 10.1 | > 25 µM | > 17.8 | > 25 | > 25 | > 25 | > 25 | > 25 | > 25 µM | > 25 µM | 16.5 | > 25 µM | > 25 | > 25 | > 25 | > 25 | > 25 | > 25 µM
8 | COc1cc([N+](=O)[O-])c(S(=O)(=O)O)cc1-[n+]1nc(C(=O)Nc2ccccc2)nn1-c1ccc([N+](=O)[O-])c(S(=O)(=O)[O-])c1 | – | > 100 | – | > 100 µM | – | > 100 | – | > 100 | – | > 100 | – | > 100 µM | – | > 100 µM | – | > 100 | – | > 100 | – | > 100 µM
9 | COc1ccc(-c2nc3sccn3c2/C=C/C(=O)c2cc(OC)c(OC)c(OC)c2)cc1 | 3.04 | > 100 | 2.34 | 7.37 µM | 3.22 | 11.8 | 2.86 | 12.9 | 1.86 | 8.28 | 2.12 µM | > 25.5 µM | 2.18 | > 24.1 µM | 2.92 | > 22.9 | 3.28 | > 100 | 2.85 | > 100 µM
10 | CCCC/C=C1/CCC(CN(C)C)C1=O (centres undefined) | – | 4.19 | – | 3.72 µM | 2.3 | 4.7 | – | 28.9 | – | 2.64 | – | 5.97 µM | – | 15 µM | – | 16.5 | – | 9.03 | – | 23.1 µM
11 | CC(=O)OCCc1cc2ccccc2oc1=O | – | > 100 | – | > 100 µM | – | > 100 | – | > 100 | – | > 100 | – | > 100 µM | – | > 100 µM | – | > 100 | – | > 100 | – | > 100 µM
12 | O=C([CH-]C(=O)c1ccccc1)c1ccccc1.[CH2-]C.[CH2-]C.[Tl+3] | 11.8 | > 100 | 28 | > 100 µM | 26 | > 100 | 15.3 | 59.3 | 17 | > 100 | 22.3 µM | > 77.2 µM | 31.7 | > 100 µM | 20.7 | 66.3 | > 100 | > 100 | 24.8 | > 100 µM
13 | O=C(NCCNC1=CC(=O)c2nc3ccccc3c3ccnc1c23)c1cnccn1 | 31 | > 100 | 2.42 | 19.1 µM | 33 | > 100 | 43.8 | > 100 | 44.7 | > 100 | 62.4 µM | > 100 µM | 32.7 | > 100 µM | 36.3 | > 100 | 58.5 | > 100 | 14.5 | 63.2 µM
14 | CN(Cc1cnc2nc(N)nc(N)c2n1)c1c(Cl)cc(C(=O)NC(CCC(=O)O)C(=O)O)cc1Br (centres undefined) | < 0.0237 | > 100 | < 0.01 | > 100 µM | < 0.01 | > 100 | < 0.01 | > 100 | 0.261 | > 100 | < 0.01 µM | – | 17.8 | > 100 µM | < 0.01 | > 100 | – | > 100 | < 0.01 | > 100 µM
15 | C#CCN(CCCOc1ccc(Cl)cc1Cl)CCCSC(=O)CCCCCN1/C(=C\C=C2/CCCC(/C=C/C3=[N+](CCCCCC(=O)[O-])c4ccccc4C3(C)C)=C2Cl)C(C)(C)c2ccccc21 | 0.733 | 2.11 | 1.45 | 3.31 µM | 2.49 | 6.47 | 3.02 | 10.9 | 0.768 | 3.21 | 10.6 µM | 26.2 µM | 1.47 | 6.4 µM | 3.22 | 13.2 | 1.94 | 4.64 | 1.46 | 3.15 µM
16 | O=C(Cc1csc2nc(-c3ccc(Br)cc3)cn12)N/N=C/c1ccccc1O | 3.67 | 15.1 | 3.22 | 15.1 µM | 5.97 | 19.2 | 2.89 | 13.9 | 5.22 | 23.2 | 7.16 µM | > 100 µM | 13.4 | 42.3 µM | 6.22 | 24.2 | 3.27 | 17 | 3.33 | 13.6 µM
17 | NCC[PH+](c1ccccc1)c1ccccc1.NCC[PH+](c1ccccc1)c1ccccc1.[Cl-].[Pt+4] | 39.3 | > 100 | > 100 | > 100 µM | 85 | > 100 | > 100 | > 100 | > 100 | > 100 | > 100 µM | > 100 µM | 99.6 | > 100 µM | > 100 | > 100 | > 100 | > 100 | > 100 | > 100 µM
18 | CCCCCCC1CCCCN1C(c1ccccc1)C(O)c1ccccc1 (centres undefined) | 5.98 | 18.9 | 8.49 | 20.8 µM | 3.09 | 12.2 | 8.34 | 20.7 | 4.68 | 19.1 | 5.69 µM | 19.8 µM | 6.68 | 21.1 µM | 7.62 | 21.4 | 6.79 | 20.3 | 4.71 | 19.2 µM
19 | Cc1nc2sc(C(=O)Nc3cccc(Cl)c3)c(N)c2cc1C(O)c1ccccc1 (centres undefined) | 0.584 | > 100 | 0.587 | 21.6 µM | 0.387 | > 100 | 0.923 | 17.2 | 0.997 | 33 | 2.37 µM | 15.6 µM | 0.351 | 4.89 µM | 1.59 | 38.8 | 2.52 | 16.9 | 0.203 | 0.465 µM
20 | O=C(/C=C/c1ccccn1)c1ccccc1 | 1.94 | 5.43 | 9.5 | 21.4 µM | 1.99 | 4.3 | 13.1 | 25.7 | 4.87 | 24.4 | 12.2 µM | 29.9 µM | 12.5 | 39.4 µM | 14.4 | 29.4 | 9.92 | 23.8 | 7.85 | 24.9 µM
21 | COc1ccc2c(c1)CCC1C2CCC2(C)C(NC(=O)CCCCC3CCSS3)CCC12 (centres undefined) | 17.5 | > 100 | 12.6 | > 100 µM | 4.3 | 39.2 | > 100 | > 100 | 3.56 | > 100 | 6.7 µM | > 100 µM | > 100 | > 100 µM | 32.5 | > 100 | 14.1 | > 100 | 9.3 | > 100 µM
22 | Nc1c([N+](=O)[O-])ncn1C1OC(CO)C(O)C1O (centres undefined) | > 100 | > 100 | > 100 | > 100 µM | > 100 | > 100 | > 100 | > 100 | > 100 | > 100 | > 100 µM | > 100 µM | > 100 | > 100 µM | > 100 | > 100 | > 100 | > 100 | > 100 | > 100 µM
23 | Cc1nc(Nc2ccc(Cl)c(Cl)c2)sc1C(/C=C/c1ccc2c(c1)OCO2)=N/Nc1ccc([N+](=O)[O-])cc1[N+](=O)[O-] | – | > 100 | – | > 100 µM | – | > 100 | – | > 100 | – | > 100 | – | > 100 µM | – | > 100 µM | – | > 100 | – | > 100 | – | > 100 µM
24 | COc1ccc(-c2nn(-c3cccc(Cl)c3)cc2-c2c(C#N)c(=O)n3[nH]c(-c4ccc(C)o4)nc3c2C#N)cc1 | 4.71 | > 50 | 5.68 | 19 µM | 7.21 | 33.6 | 19.1 | > 50 | 2.77 | 33.8 | 1.8 µM | 38.9 µM | 2.95 | > 50 µM | 4.57 | > 50 | 4.7 | 36.9 | 4.44 | 30.1 µM
25 | COc1ccc2cc1Oc1ccc(cc1)CC1c3c(cc(OC)c4c3Oc3cc5c(cc3O4)CCNC5C2)CCN1C (centres undefined) | 1.68 | 3.2 | 1.62 | 7.41 µM and 3.07 µM | 0.626 | 1.91 | 1.54 | 2.87 | 1.75 | 3.53 | 1.67 µM | 30.7 µM and 3.13 µM | 1.98 | 4.71 µM and 4.59 µM | – | 4.07 | 1.73 | 3.35 | 1.56 | 3.43 µM and 2.9 µM
26 | CC(C)OC(=O)c1cc(NC(=S)OC(C)C)ccc1Cl | – | > 57.6 | – | 48.3 µM | – | 38.6 | – | > 62.1 | – | > 57.6 | – | 54.3 µM | – | > 79.8 µM | – | > 66.8 | – | 30.4 | – | 31.4 µM
27 | c1ccc2[nH]c(-c3cscn3)nc2c1 | – | > 100 | – | > 100 µM | – | > 100 | – | > 100 | – | > 100 | > 100 µM and 25.8 µM | > 100 µM | – | > 100 µM | – | > 100 | – | > 100 | – | > 100 µM
28 | CNc1ccc(CSc2ccc(C)cc2)cc1 | 9.85 | > 100 | 11.7 | > 100 µM | 21.7 | 77.8 | 31 | > 100 | 13.5 | > 100 | 1.16 µM | 4.32 µM | 56 | > 100 µM | 5.34 | > 100 | 2.45 | 11.7 | 13.1 | > 100 µM
